In patent US20220372014A1, “NEUROPROTECTIVE COMPOUNDS AND METHODS OF USE THEREOF” (The Johns Hopkins University, priority 2019, published 2022):

Legend:
MIF = target: T1, MIF (Homo sapiens, UniProt P14174); experiment: Nuclease assay of Example 3 (MIF inhibitory activity, Table 4); format: biochemical; design: (%) inhibition of MIF nuclease activity: concentration or dose not given beside the values; conditions: nuclease assay of Example 3
T1 sequence (P14174 1-115): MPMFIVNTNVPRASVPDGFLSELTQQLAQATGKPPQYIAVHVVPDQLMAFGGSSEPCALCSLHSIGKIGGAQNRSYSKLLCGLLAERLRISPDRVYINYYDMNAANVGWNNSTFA
Experimental: A rapafucin library was synthesized as described in WO2017/136708 and Guo et al. (2018) Nat. Chem. 11:254-63. The hybrid macrocyclic library consisted of 45,000 compounds in pools of 15 individual compounds. The library compounds were screened for MIF inhibitory activity using a nuclease assay as detailed in FIG. 1 and below.
Nuclease assay: Human genomic DNA (200 ng/reaction, Promega), pcDNA (200 ng/reaction) or PS^30 and its related and non-related substrates (1 μM) was incubated with wild type MIF or its variants at a final concentration of 0.25-8 μM as indicated in 10 mM Tris-HCl buffer (pH 7.0) containing 10 mM MgCl2 and 1 mM DTT or specific buffer as indicated, for 1 h (with pcDNA and small DNA substrates) or 4 h (with human genomic DNA) at 37° C. The reaction was terminated with loading buffer containing 10 mM EDTA and incubation on ice. The human genomic DNA samples were immediately separated on a 1.2% pulse field certified agarose in 0.5×TBE buffer with initial switch time of 1.5 s and a final switch time of 3.5 s for 12 h at 6 V/cm. pcDNA samples were determined by 1% agarose gel. Small DNA substrates were separated on 15% or 25% TBE-urea polyacrylamide (PAGE) gel or 20% TBE PAGE gel. Then gel was stained with 0.5 μg/ml Ethidium Bromide (EtBr) followed by electrophoretic transfer to nylon membrane. Then, Biotin-labeled DNA is further detected by chemiluminescence using Chemiluminescent Nucleic Acid Detection Module (Thermo Scientific).
Structure-activity relationship (SAR) analysis was then conducted on the compounds identified as having MIF inhibitory activity. Compounds having the structure of Formula (I) were then synthesized as shown in Example 1 and tested for MIF inhibitory activity using the nuclease assay described herein and neuronal protection via a cell death assay as detailed below.

[1] = system: HeLa cells or neuronal cells; experiment: Cell death assay of Example 3 (MNNG, alamarBlue; protection against parthanatos, Table 4); format: cell-based; conditions: 1 μM test compound, MNNG-induced cell death, alamarBlue
Experimental: Cell death assay: 200 μl of cells (HeLa cells or neuronal cells) culture (1×10^4 cells/well) were plated into the wells of a sterile 96-well cell culture plate. The cells were incubated for 18 hours at 37° C. The medium was removed and changed with 100 μl/well of 1 μM test compound. Incubate for 1 hours at 37° C. Ten μl of 500 μM MNNG (N-Methyl-N′-nitro-N-nitrosoguanidine) was added to each well. The medium was aspirated well and incubated for 15 min at 37° C. The cells were washed with the fresh medium. The medium was changed with 1 μM of test compound and incubated for 18 hours at 37° C. 10 μl/well of alamarBlue reagent was added directly to the well and incubated for 1 to 4 hours at 37° C. Fluorescence was measured using a fluorescence excitation wavelength of 560 nm and emission at 590 nm. The percentage of cell death was determined as the ratio of live to dead cells compared with the percentage of cell death in control wells to account for cell death attributed to mechanical stimulation of the cultures.

| (%) inhibition of MIF nuclease activity (MIF) [%] | Compound | (%) inhibition of cell death [1] [%] |
| --- | --- | --- |
| 78.4 | COc1ccc(CC[C@H]2OC(=O)[C@@H]3CCCCN3C(=O)C(=O)C(C)(C)COC(=O)C=CCCN(C)C(=O)[C@H](CC3CCCCC3)NC(=O)[C@H](COC(C)(C)C)N(C)C(=O)[C@@H](Cc3ccc4ccccc4c3)NC(=O)[C@H](C)N(C)C(=O)COc3cccc2c3)cc1OC [compound 27] | 72.1 |
| 66.6 | COc1ccc(CC[C@H]2OC(=O)[C@@H]3CCCCN3C(=O)C(=O)C(C)(C)COC(=O)C=CCCN(C)C(=O)[C@H](Cc3ccc4ccccc4c3)NC(=O)[C@H](COC(C)(C)C)N(C)C(=O)[C@H](Cc3ccc4ccccc4c3)NC(=O)[C@H](C)N(C)C(=O)COc3cccc2c3)cc1OC [compound 28] | 69.6 |
| 12.4 | COc1ccc(CC[C@H]2OC(=O)[C@@H]3CCCCN3C(=O)C(=O)C(C)(C)COC(=O)C=CCCN(C)C(=O)[C@H](C(C)C)NC(=O)[C@H](COC(C)(C)C)N(C)C(=O)[C@H](Cc3ccc4ccccc4c3)NC(=O)[C@H](C)N(C)C(=O)COc3cccc2c3)cc1OC [compound 29] | 57.8 |
| 18.6 | COc1ccc(CC[C@H]2OC(=O)[C@@H]3CCCCN3C(=O)C(=O)C(C)(C)COC(=O)C=CCCN(C)C(=O)C(c3ccccc3)NC(=O)[C@H](COC(C)(C)C)N(C)C(=O)[C@H](Cc3ccc4ccccc4c3)NC(=O)[C@H](C)N(C)C(=O)COc3cccc2c3)cc1OC (stereo partly shown) [compound 30] | 51.5 |
| 24.2 | CCC[C@@H]1NC(=O)[C@H](COC(C)(C)C)N(C)C(=O)C(c2ccccc2)NC(=O)CN(C)C(=O)COc2cccc(c2)[C@@H](CCc2ccc(OC)c(OC)c2)OC(=O)[C@@H]2CCCCN2C(=O)C(=O)C(C)(C)COC(=O)C=CCCN(C)C1=O (stereo partly shown) [compound 34] | 58.4 |
| 21.5 | COCC[C@@H]1NC(=O)[C@H](COC(C)(C)C)N(C)C(=O)C(c2ccccc2)NC(=O)CN(C)C(=O)COc2cccc(c2)[C@@H](CCc2ccc(OC)c(OC)c2)OC(=O)[C@@H]2CCCCN2C(=O)C(=O)C(C)(C)COC(=O)C=CCCN(C)C1=O (stereo partly shown) [compound 35] | 56.3 |
| 18.5 | COc1ccc(CC[C@H]2OC(=O)[C@@H]3CCCCN3C(=O)C(=O)C(C)(C)COC(=O)C=CCCN(C)C(=O)[C@H](CC(C)C)NC(=O)[C@H](COC(C)(C)C)N(C)C(=O)C(c3ccccc3)NC(=O)CN(C)C(=O)COc3cccc2c3)cc1OC (stereo partly shown) [compound 36] | 51.0 |
| 18.0 | COc1ccc(CC[C@H]2OC(=O)[C@@H]3CCCCN3C(=O)C(=O)C(C)(C)COC(=O)C=CCCN(C)C(=O)[C@@H](CC(C)C)NC(=O)[C@H](COC(C)(C)C)N(C)C(=O)C(c3ccccc3)NC(=O)CN(C)C(=O)COc3cccc2c3)cc1OC (stereo partly shown) [compound 37] | 59.6 |

Continued, molecule first:

| Compound | (%) inhibition of MIF nuclease activity (MIF) [%] | (%) inhibition of cell death [1] [%] |
| --- | --- | --- |
| COc1ccc(CC[C@H]2OC(=O)[C@@H]3CCCCN3C(=O)C(=O)C(C)(C)COC(=O)C=CCCN(C)C(=O)[C@@H](C)NC(=O)[C@H](COC(C)(C)C)N(C)C(=O)[C@H](Cc3ccc4ccccc4c3)NC(=O)[C@H](C)N(C)C(=O)COc3cccc2c3)cc1OC [compound 18] | 65.0 | 78.4 |
| CCC[C@@H]1NC(=O)[C@H](COC(C)(C)C)N(C)C(=O)[C@@H](Cc2ccc3ccccc3c2)NC(=O)[C@H](C)N(C)C(=O)COc2cccc(c2)[C@@H](CCc2ccc(OC)c(OC)c2)OC(=O)[C@@H]2CCCCN2C(=O)C(=O)C(C)(C)COC(=O)C=CCCN(C)C1=O [compound 19] | 59.9 | 62.4 |
| COCC[C@@H]1NC(=O)[C@H](COC(C)(C)C)N(C)C(=O)[C@H](Cc2ccc3ccccc3c2)NC(=O)[C@H](C)N(C)C(=O)COc2cccc(c2)[C@@H](CCc2ccc(OC)c(OC)c2)OC(=O)[C@@H]2CCCCN2C(=O)C(=O)C(C)(C)COC(=O)C=CCCN(C)C1=O [compound 20] | 42.2 | 60.6 |
| COc1ccc(CC[C@H]2OC(=O)[C@@H]3CCCCN3C(=O)C(=O)C(C)(C)COC(=O)C=CCCN(C)C(=O)[C@H](CC(C)C)NC(=O)[C@H](COC(C)(C)C)N(C)C(=O)[C@H](Cc3ccc4ccccc4c3)NC(=O)[C@H](C)N(C)C(=O)COc3cccc2c3)cc1OC [compound 21] | 57.9 | 61.0 |
| COc1ccc(CC[C@H]2OC(=O)[C@@H]3CCCCN3C(=O)C(=O)C(C)(C)COC(=O)C=CCCN(C)C(=O)[C@@H](CC(C)C)NC(=O)[C@H](COC(C)(C)C)N(C)C(=O)[C@H](Cc3ccc4ccccc4c3)NC(=O)[C@H](C)N(C)C(=O)COc3cccc2c3)cc1OC [compound 22] | 61.8 | 56.9 |
| COc1ccc(CC[C@H]2OC(=O)[C@@H]3CCCCN3C(=O)C(=O)C(C)(C)COC(=O)C=CCCN(C)C(=O)[C@H](Cc3ccccc3)NC(=O)[C@H](COC(C)(C)C)N(C)C(=O)[C@H](Cc3ccc4ccccc4c3)NC(=O)[C@H](C)N(C)C(=O)COc3cccc2c3)cc1OC [compound 23] | 45.7 | 58.7 |
| COc1ccc(CC[C@H]2OC(=O)[C@@H]3CCCCN3C(=O)C(=O)C(C)(C)COC(=O)C=CCCN(C)C(=O)[C@@H](Cc3ccccc3)NC(=O)[C@H](COC(C)(C)C)N(C)C(=O)[C@H](Cc3ccc4ccccc4c3)NC(=O)[C@H](C)N(C)C(=O)COc3cccc2c3)cc1OC [compound 24] | 40.3 | 57.4 |
| COc1ccc(CC[C@H]2OC(=O)[C@@H]3CCCCN3C(=O)C(=O)C(C)(C)COC(=O)C=CCCN(C)C(=O)[C@H](Cc3ccc(F)cc3)NC(=O)[C@H](COC(C)(C)C)N(C)C(=O)[C@H](Cc3ccc4ccccc4c3)NC(=O)[C@H](C)N(C)C(=O)COc3cccc2c3)cc1OC [compound 25] | 25.8 | 59.1 |
| COc1ccc(CC[C@H]2OC(=O)[C@@H]3CCCCN3C(=O)C(=O)C(C)(C)COC(=O)C=CCCN(C)C(=O)[C@@H]3CCCN3C(=O)[C@H](COC(C)(C)C)N(C)C(=O)[C@H](Cc3ccc4ccccc4c3)NC(=O)[C@H](C)N(C)C(=O)COc3cccc2c3)cc1OC [compound 26] | 64.9 | 71.2 |
| COc1ccc(CC[C@H]2OC(=O)[C@@H]3CCCCN3C(=O)C(=O)C(C)(C)COC(=O)C=CCCN(C)C(=O)CNC(=O)[C@H](COC(C)(C)C)N(C)C(=O)C(c3ccccc3)NC(=O)CN(C)C(=O)COc3cccc2c3)cc1OC (stereo partly shown) [compound 31] | 22.9 | 52.3 |
| COc1ccc(CC[C@H]2OC(=O)[C@@H]3CCCCN3C(=O)C(=O)C(C)(C)COC(=O)C=CCCN(C)C(=O)[C@H](C)NC(=O)[C@H](COC(C)(C)C)N(C)C(=O)C(c3ccccc3)NC(=O)CN(C)C(=O)COc3cccc2c3)cc1OC (stereo partly shown) [compound 32] | 11.2 | 54.3 |
| COc1ccc(CC[C@H]2OC(=O)[C@@H]3CCCCN3C(=O)C(=O)C(C)(C)COC(=O)C=CCCN(C)C(=O)[C@@H](C)NC(=O)[C@H](COC(C)(C)C)N(C)C(=O)C(c3ccccc3)NC(=O)CN(C)C(=O)COc3cccc2c3)cc1OC (stereo partly shown) [compound 33] | 12.6 | 53.4 |
